Assay results taken from article PMC12737022, “Evaluations of Sex Differences in Dosimetry in Rats Following Perfluorohexanesulfonamide (PFHxSA) Oral Exposure” (Toxics, 2025).

Tests used:
[1] = In vitro-in vivo extrapolation (IVIVE) to estimate Css, human; conditions: for Css (steady-state concentration) / CL renal: Human; for Css (steady-state concentration): IVIVE-derived, assumes 1 mg/kg/day exposure; for CL renal: non-metabolic, GFR x fub, read-out: Clrenal (renal clearance) (converted); for Predicted Css in humans higher than rats: cross-species IVIVE comparison
Experimental: Intrinsic hepatic clearance (Clint) and fraction unbound in plasma (fup) were calculated from the experimental point estimate data as described in Dobreniecki et al.. Steady-state concentrations (Css) were derived based on zero-order uptake of an assumed daily dose from the gut (assuming 100% intestinal bioavailability) but considering hepatic clearance and non-metabolic renal clearance. Renal clearance was calculated using the glomerular filtration rate (a species-dependent constant) and the fraction unbound in blood (fub), estimated by adjusting the experimental fup for blood/plasma partitioning. The Css calculations, along with underlying species-specific physiologic scalars, are detailed in SI Texts S6 and S7. […]
hepatocytes). In equation (C), the scalar 2000 is used to adjust the assay cell number to be consistent with units of 1 million cells in the Clint equation.
Text S7 In Vitro-In Vivo Extrapolation (IVIVE) Calculations
The pharmacokinetic equation used to estimate expected steady-state concentrations (Css) is based on zero-order uptake of a daily dose from the gut (assuming 100% bioavailability) with both nonmetabolic renal clearance (Clrenal) and hepatic clearance (Clhepatic) (Equation D). The chemical input rate (ko) is the product of the intake dosage and the model body weight; this represents the numerator of Equation D. The Clrenal calculation is shown in the first part of the denominator of Equation D; it is the product of the species-dependent glomerular filtration rate (GFR) and the unbound fraction in blood (fub) of the parent compound. The Clhepatic calculation is shown in the second part of the denominator of Equation D; it is the product of the species-dependent liver blood flow constant, the fub of the parent compound, and the experimentally derived intrinsic clearance (shown in Equation C) divided by the sum of these three values. All values used in Equation D are for first-order conditions of metabolism in the […]

[2] = tested on: rat hepatocytes; experiment: In vitro hepatocyte metabolic stability assay, rat hepatocytes; assay type: in vitro ADME; conditions: scaled from hepatocyte clearance at 1 μM
Experimental: In vitro evaluations of PFHxSA and PFHxS hepatocyte metabolic stability were performed in rat hepatocytes, as previously described. Also, human hepatocyte clearance data were obtained from an earlier study. Native PFHxSA was obtained from Alpha Chemistry (purity > 98.4%; Holbrook, NY, USA), and PFHxS was obtained from Ark Pharma Scientific Limited (purity > 95%; Cambridge, UK). Pooled, mixed-sex cryopreserved hepatocyte suspensions were employed in a substrate depletion approach, using a final assay concentration of 1 μM. […]
Targeted, quantitative analysis of in vitro hepatocyte metabolic stability and plasma protein binding assay samples was conducted on a Waters (Milford, MA, USA) Xevo-TQS micro ultra-high-performance liquid chromatography tandem mass spectrometry system (UPLC-MS/MS), modified with a PFAS analysis kit. Samples were analyzed in negative ion mode with UniSpray ionization. Samples were analyzed in triplicate, with a reference compound included to evaluate assay performance. […]
Intrinsic hepatic clearance (Clint) and fraction unbound in plasma (fup) were calculated from the experimental point estimate data as described in Dobreniecki et al.. […] Renal clearance was calculated using the glomerular filtration rate (a species-dependent constant) and the fraction unbound in blood (fub), estimated by adjusting the experimental fup for blood/plasma partitioning. […]

Row | Compound | Css (steady-state concentration) [1] | CL renal [1] | Predicted Css in humans higher than rats [1] | Clhep (hepatic clearance) [2] | IVIVE-derived Css lower for PFHxS compared to PFHxSA ([1]; human)
1 | NS(=O)(=O)C(F)(F)C(F)(F)C(F)(F)C(F)(F)C(F)(F)C(F)(F)F [PFHxSA, Perfluorohexanesulfonamide] | 1510 µM | 0.0817 mL/min | 3- to 10 fold | 0.0000449 L/h | 
2 | O=S(=O)(O)C(F)(F)C(F)(F)C(F)(F)C(F)(F)C(F)(F)C(F)(F)F [PFHxS, perfluorohexane sulfonic acid] | 669 µM | 0.183 mL/min | 3- to 10 fold | 0 L/h | 2.25 fold
